Data from the supplement of paper PMC10307832.

Assays:
Experiment in all cases: relative viability (nuclei count vs DMSO), 5 days (fraction); higher = more cells survive
[1] = compound: CN(c1ncccc1CNc1nc(Nc2ccc3c(c2)CC(=O)N3)ncc1C(F)(F)F)S(C)(=O)=O + CC1(C)CCC(c2ccc(Cl)cc2)=C(CN2CCN(c3ccc(C(=O)NS(=O)(=O)c4ccc(N[C@H](CCN5CCOCC5)CSc5ccccc5)c(S(=O)(=O)C(F)(F)F)c4)cc3)CC2)C1 [Navitoclax] (partner 0.5 µM)
Summary of the method: (§1)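 Each reported value is a median over duplicate plates. It expresses relative viability: treated-well nuclei count divided by vehicle-well nuclei count. Lung cancer cell lines in 1536-well plates were dosed by pin tool a day after seeding, alone with one drug or with a fixed anchor-drug dose plus five library-drug doses (not always all listed) in √10 steps, and nuclei were counted after 5 days.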

[2] = compound: CN(c1ncccc1CNc1nc(Nc2ccc3c(c2)CC(=O)N3)ncc1C(F)(F)F)S(C)(=O)=O + C[C@]1(O)C[C@@H](c2nc(-c3ccc4ccc(-c5ccccc5)nc4c3)c3c(N)nccn32)C1 [Linsitinib] (partner 1 µM)
Summary of the method: as §1

[3] = compound: CN(c1ncccc1CNc1nc(Nc2ccc3c(c2)CC(=O)N3)ncc1C(F)(F)F)S(C)(=O)=O + Nc1nc2[nH]cc(CCc3ccc(C(=O)N[C@@H](CCC(=O)O)C(=O)O)cc3)c2c(=O)[nH]1 [Pemetrexed] (partner 0.2 µM)
Summary of the method: as §1

[4] = compound: CN(c1ncccc1CNc1nc(Nc2ccc3c(c2)CC(=O)N3)ncc1C(F)(F)F)S(C)(=O)=O + O=C(CCCCCCC(=O)Nc1ccccc1)NO [Vorinostat] (partner 1 µM)
Summary of the method: as §1

Row | Cell Line | relative viability ([1]; first compound 0.01 µM) | relative viability ([1]; first compound 0.03162 µM) | relative viability ([1]; first compound 0.1 µM) | relative viability ([1]; first compound 0.3162 µM) | relative viability ([1]; first compound 1 µM) | relative viability ([2]; first compound 0.01 µM) | relative viability ([2]; first compound 0.03162 µM) | relative viability ([2]; first compound 0.1 µM) | relative viability ([2]; first compound 0.3162 µM) | relative viability ([2]; first compound 1 µM) | relative viability ([3]; first compound 0.01 µM) | relative viability ([3]; first compound 0.03162 µM) | relative viability ([3]; first compound 0.1 µM) | relative viability ([3]; first compound 0.3162 µM) | relative viability ([3]; first compound 1 µM) | relative viability ([4]; first compound 0.01 µM) | relative viability ([4]; first compound 0.03162 µM) | relative viability ([4]; first compound 0.1 µM) | relative viability ([4]; first compound 0.3162 µM) | relative viability ([4]; first compound 1 µM)
1 | LU99A | 0.737 | 0.955 | 0.824 | 0.91 | 0.788 | 0.582 | 0.552 | 0.609 | 0.537 | 0.656 | 0.25 | 0.156 | 0.184 | 0.203 | 0.178 | 0.531 | 0.526 | 0.571 | 0.635 | 0.531
2 | LXF-289 | 0.988 | 1.04 | 0.962 | 0.929 | 0.911 | 1.03 | 1.03 | 0.95 | 0.947 | 0.936 | 1.03 | 0.829 | 0.864 | 0.804 | 0.871 | 0.887 | 0.787 | 0.782 | 0.697 | 0.792
3 | NCI-H23 | 0.867 | 1.04 | 1.08 | 0.969 | 0.837 | 0.598 | 0.695 | 0.549 | 0.678 | 0.723 | 0.691 | 0.618 | 0.779 | 0.62 | 0.605 | 0.659 | 0.594 | 0.633 | 0.714 | 0.662
4 | NCI-H322M | 1.3 | 1.34 |  | 1.51 | 1.26 | 1.02 | 1.08 |  | 1.1 | 1.16 | 0.615 | 0.606 | 0.651 | 0.635 | 0.714 | 0.883 | 0.875 | 0.916 | 0.97 | 0.98
5 | NCI-H441 | 0.476 | 0.687 | 0.479 | 0.706 | 0.374 | 0.457 | 0.707 | 0.513 | 0.583 | 0.536 | 0.222 | 0.262 | 0.244 | 0.292 | 0.262 | 0.933 | 0.978 | 0.824 | 0.792 | 0.644
6 | NCI-H460 | 1.18 | 1.46 | 1.13 | 1.19 | 1.11 | 0.79 | 1.17 | 0.785 | 0.628 | 0.788 | 0.0683 | 0.0581 | 0.0611 | 0.0605 | 0.0728 | 0.696 | 0.757 | 0.615 | 0.76 | 0.736
7 | NCI-H520 | 1.05 | 1.12 | 1.2 | 1.19 | 1.17 | 1.03 | 0.941 | 1 | 1.03 | 0.842 | 0.609 | 0.924 | 0.632 | 0.768 | 0.705 | 0.678 | 0.925 | 0.693 | 0.746 | 0.754
8 | NCI-H596 | 0.9 | 0.912 | 0.965 | 0.86 | 0.675 | 1 | 1.12 | 1.02 | 1.05 | 0.896 | 0.425 | 0.466 | 0.503 | 0.469 | 0.605 | 0.586 | 0.616 | 0.566 | 0.557 | 0.69
9 | NCI-H647 | 1.16 | 1.21 | 1.16 | 1.04 | 1.07 | 1.1 | 1.4 | 1.13 | 0.95 | 1.1 | 0.192 | 0.163 | 0.167 | 0.178 | 0.17 | 0.473 | 0.742 | 0.476 | 0.577 | 0.631
10 | NCI-H838 | 1.17 | 1.35 | 1.27 | 1.02 | 0.851 | 0.981 | 1.07 | 1.02 | 0.83 | 0.745 | 0.247 | 0.258 | 0.247 | 0.219 | 0.238 | 0.715 | 0.731 | 0.94 | 0.589 | 0.437
11 | NCI-H1355 | 0.942 | 1.02 | 0.968 | 0.846 | 0.776 | 0.776 | 0.943 | 0.846 | 0.78 | 0.679 | 1.02 | 0.981 | 0.993 | 1.02 | 0.973 | 0.67 | 0.708 | 0.676 | 0.589 | 0.623
12 | NCI-H1395 | 1.19 | 1.25 | 1.04 | 1.06 | 1.31 | 0.939 | 1.12 | 0.981 | 1.1 | 1.2 | 1 | 0.882 | 0.865 | 0.98 | 0.909 | 0.792 | 0.698 | 0.725 | 0.659 | 0.898
13 | NCI-H1437 | 1.1 | 1.09 | 1.16 | 0.986 | 0.968 | 0.988 | 1.08 | 1.08 | 0.978 | 0.951 | 0.332 | 0.335 | 0.33 | 0.347 | 0.398 | 0.763 | 0.846 | 0.697 | 0.597 | 0.414
14 | NCI-H1651 | 1.07 | 1 | 1.21 | 0.867 | 0.976 | 0.996 | 0.999 | 1.25 | 0.994 | 0.993 | 0.585 | 0.593 | 0.558 | 0.575 | 0.579 | 0.565 | 0.566 | 0.535 | 0.568 | 0.571
15 | NCI-H1666 | 1.1 | 0.986 | 0.906 | 0.795 | 0.57 | 0.814 | 0.816 | 0.943 | 0.72 | 0.612 | 0.877 | 0.82 | 0.805 | 0.78 | 0.787 | 1.07 | 0.94 | 0.926 | 0.758 | 0.767
16 | NCI-H1734 | 0.894 | 0.937 | 0.824 | 0.866 | 0.707 | 0.939 | 1.01 | 0.796 | 0.966 | 0.751 | 0.421 | 0.379 | 0.395 | 0.421 | 0.439 | 0.809 | 0.818 | 0.799 | 0.8 | 0.781
